Test results taken from US20090326035A1, “Compositions and Methods for Preventing or Reducing Postoperative Ileus and Gastric Stasis in Mammals” (priority 2006, published 2009).

Tested on: Male Sprague Dawley rats
Assay: Charcoal transit model of postoperative ileus (POI) after cecum manipulation
Assay type: in vivo, rat
Details: for Prevention of POI (in words): delivered via gel to the manipulated intestines; for % GI Transfer: 4 h after oral charcoal meal; for Dose response of the effect on POI (in words): low versus high dose gel formulations
Source text: The charcoal transit model is an acceptable and established model to study the effects of abdominal surgery on intestinal motility. We followed the procedure as described by De Winter et al. (1997) (Reference: Effect of adrenergic and nitrergic blockade on experimental ileus in rats. British Journal of Pharmacology (1997) 120, 464-468. Benedicte Y. De Winter, Guy E. Boeckxstaens, Joris G. De Man, Tom G. Moreels, Arnold G. Herman & Paul A. Pelckmans). The model simulates the abdominal procedure in human and tests for gastric emptying and intestinal motility by the transfer of a charcoal meal fed to the animals.
Male Sprague Dawley rats, weighing 250-275 g (8 in group) were anesthetized with a xylazine/ketamine cocktail, injected IM, the abdomen was shaved and disinfected with alcohol and Betadyne. A 2.5 cm incision was made from the xyphoid process caudally. The intestinal contents was exteriorized onto wet gauze. The cecum was manipulated gently for 1 minute. The abdominal contents were replaced, the treatment was applied, and the body wall was closed with 4-0 PDS for the fascia and muscle layers. The skin was closed with wound clips. In addition, two control groups were tested as well: incision only and naïve. Treatment groups included two control groups, surgery (incision only) and naïve, and two treatment groups, a high and low dose of Diclofenac, as well as 3 wt % Na-CMC gel alone. The high and low dose of Diclofenac, as well as the 3 wt % Na-CMC gel were prepared as described above. 8 rats were included in each group with a total of 40 rats.
The rats were treated with an oral solution of charcoal (10%) in acacia gum (2%). Four hours following oral administration rats were euthanized with Euthasole. The intestines were exteriorized and the distance traveled by the charcoal meal was measured as well as the full length of the intestines (from the pylorus through the anus). Results are expressed as percent of distance traveled relative to the full length of the intestines.
Male Sprague Dawley rats, weighing 250-275 g (8 in group) were anesthetized with a xylazine/ketamine cocktail, injected IM, the abdomen was shaved and disinfected with alcohol and Betadyne. A 2.5 cm incision was made from the xyphoid process caudally. The intestinal contents was exteriorized onto wet gauze. The cecum was manipulated gently for 1 minute. The abdominal contents were replaced, the treatment was applied, and the body wall was closed with 4-0 PDS for the fascia and muscle layers. The skin was closed with wound clips. In addition, two control groups were tested as well: incision only and naïve. Treatment groups included two control groups, surgery (incision only) and naïve, and 4 treatment groups, a high and low dose of Diclofenac, a high and a low dose of Naproxen, as well as 3 wt % Na-CMC gel alone. The high and low dose of Diclofenac, as well as the 3 wt % Na-CMC gel were prepared as described above. 8 rats were included in each group with a total of 56 rats.

[1] = Example 2, both doses (0.3 and 2.0 mg) in gel, compared with non-treated and gel-alone animals
[2] = Example 2, high dose 2.0 mg in 3 wt % Na-CMC gel applied after intestinal manipulation
[3] = Example 2, low dose 0.3 mg in 3 wt % Na-CMC gel applied after intestinal manipulation

O=C(O)Cc1ccccc1Nc1c(Cl)cccc1Cl [Diclofenac-Na, Diclofenac sodium]
Prevention of POI (in words) (Example 1, high dose, listed as Diclofenac sodium): complete prevention
Prevention of POI (in words) (Example 1, high dose, listed as diclofenac): completely alleviated the POI
% GI Transfer (Example 1, listed as 'Diclofenac-Na high', dose printed 0.3 mg, in 3 wt % Na-CMC gel applied after intestinal manipulation, distance traveled relative to full intestine length): 73.58%
% GI Transfer (Example 1, listed as 'Diclofenac-Na low', dose printed 1.0 mg, in 3 wt % Na-CMC gel applied after intestinal manipulation, distance traveled relative to full intestine length): 95.05%
Prevention of POI (in words) (Example 1, low dose): significant prevention of POI
Dose response of the effect on POI (in words): dose related manner

O=C(c1ccccc1)c1ccc2n1CCC2C(=O)O (stereo not drawn) [Ketorolac]
Alleviation of POI (in words) [1]: significant alleviation of the POI
% GI Transfer [2]: 69.84%
% GI Transfer [3]: 70.99%
Dose response of the effect on POI (in words): dose response was not observed

COc1ccc2cc([C@H](C)C(=O)O)ccc2c1 [Naproxen]
Alleviation of POI (in words) [1]: both doses improved on the gastric emptying and intestinal transfer
% GI Transfer [2]: 65.34%
Alleviation of POI (in words) (Example 2, high dose (2.0 mg) in gel): not completely curative
% GI Transfer [3]: 56.9%
Dose response of the effect on POI (in words): dose related prevention of the POI
